In PubChem BioAssay (NCI):
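How tested: cells in 96-well plates exposed to compound for 48 hours at five concentrations. GI50 = concentration required for 50% inhibition of growth. Definition used: TGI = concentration required for complete inhibition of growth.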

Legend:
Test in all cases: DTP human tumour cell line panel, 48 h
[1] = tested on: 786-0 renal
[2] = tested on: A498 renal
[3] = tested on: CAKI-1 renal
[4] = tested on: EKVX NSCLC
[5] = tested on: IGROV1 ovarian
[6] = tested on: MALME-3M melanoma
[7] = tested on: MDA-N
[8] = tested on: NCI-H522 lung
[9] = tested on: SK-MEL-2 melanoma
[10] = tested on: SNB-75 CNS
[11] = tested on: T-47D breast
[12] = tested on: U251 CNS
[13] = tested on: PC-3 prostate

| SMILES | TGI [1] [µM] | TGI [2] [µM] | TGI [3] [µM] | TGI [4] [µM] | TGI [5] [µM] | TGI [6] [µM] | TGI [7] [µM] | TGI [8] [µM] | TGI [9] [µM] | TGI [10] [µM] | TGI [11] [µM] | TGI [12] [µM] | TGI [13] [µM] | GI50 [2] [µM] | GI50 [3] [µM] | GI50 [4] [µM] | GI50 [6] [µM] | GI50 [10] [µM] | GI50 [11] [µM] | GI50 [5] [µM] |
| --- | --- | --- | --- | --- | --- | --- | --- | --- | --- | --- | --- | --- | --- | --- | --- | --- | --- | --- | --- | --- |
| CN(C)CCCSc1nc2ccccc2[nH]1 | > 100 | > 100 | > 100 | > 100 | > 100 | > 100 | > 100 | > 100 | > 100 | > 100 | > 100 | > 100 | – | – | – | – | – | – | – | – |
| C1=NCCN2CCN(CCN=Cc3ccc(cc3)OCc3cccc(n3)COc3ccc1cc3)CC2 | > 50 | > 50 | – | > 50 | > 50 | > 50 | – | > 50 | > 50 | > 50 | – | > 50 | > 50 | – | – | – | – | – | – | – |
| OC1(c2cccs2)c2cccc(Cl)c2C(O)(c2cccs2)c2c(Cl)cccc21 (stereo unspecified) | > 100 | > 100 | > 100 | > 100 | > 100 | > 100 | > 100 | > 100 | > 100 | > 100 | > 100 | > 100 | > 100 | – | – | – | – | – | – | – |
| CCOc1ccc(NC(=O)C(=O)CC(=O)c2sc(NNC(C)=O)nc2C)cc1 | – | > 100 | > 100 | > 100 | > 100 | – | – | > 100 | > 100 | > 100 | – | > 100 | – | – | – | – | – | – | – | – |
| C[C@]12C=CC(=O)C=C1CC[C@@H]1[C@@H]2CC[C@]2(C)OC(=O)CC[C@@H]12 | > 500 | 496 | > 404 | > 500 | > 475 | > 500 | > 500 | 457 | > 488 | > 487 | > 500 | > 500 | > 500 | – | – | – | – | – | – | – |
| CCCCCCCCCCCCCCCCCCOc1ccccc1CC(=O)OCC[N+]1(C)CCCCC1 | – | 9.71 | 4.87 | 17.5 | – | 4.86 | – | – | – | 3.72 | 9.37 | – | – | 2.53 | 1.74 | 2.65 | 1.97 | 1.39 | 2.49 | – |
| Cc1ccc(S(=O)(=O)n2cc(-c3cc(C(F)(F)F)ccn3)c3cc(Br)ccc32)cc1 | 36.3 | 46.9 | 38.6 | > 100 | – | 52.7 | > 100 | – | 10.8 | – | 18.9 | 34.3 | 41.7 | – | – | – | – | – | – | – |
| O=C(O)c1cc([N+](=O)[O-])cc2c(=O)c3cnccc3[nH]c12 | – | > 100 | > 100 | – | > 100 | > 100 | > 100 | > 100 | > 100 | > 100 | > 100 | > 100 | > 100 | – | – | – | – | – | – | – |
| CCOc1cc(NC(C)=O)ccc1C(=O)NN1C(=O)C(Cl)C1c1ccccc1 (stereo unspecified) | 28.1 | 31.7 | 30.1 | 28.7 | 18 | 25.2 | 32.9 | 5.82 | 29.9 | 29.7 | 35.4 | – | 27.8 | – | – | – | – | – | – | – |
| O=C([O-])C[n+]1ccccc1 | > 100 | > 100 | > 100 | > 100 | > 100 | > 100 | > 100 | > 100 | > 100 | > 100 | > 100 | > 100 | > 100 | – | – | – | – | – | – | – |
| O=C(Nc1ccc(Cl)cc1)c1cc2cc(N=Nc3ccccc3Cl)ccc2oc1=O | – | – | > 100 | 57.5 | 48.1 | 48.3 | – | 53.2 | 47 | 72.5 | – | 51 | – | – | – | – | – | – | – | – |
| CN1CCOC(c2ccc(Cl)cc2)O1 (stereo unspecified) | – | > 100 | > 100 | > 100 | > 100 | > 100 | > 100 | > 100 | > 100 | > 100 | – | > 100 | > 100 | – | – | – | – | – | – | – |
| CCOC(=O)c1cnc2oc3ccc(O)cc3c2c1C | > 100 | > 100 | > 100 | > 100 | > 100 | > 100 | > 100 | – | > 100 | 82.9 | > 100 | > 100 | > 100 | – | – | – | – | 26 | – | 86.2 |
| NN(CC(=O)O)CC(=O)O | > 100 | > 100 | > 100 | > 100 | > 100 | > 100 | > 100 | > 100 | > 100 | – | > 100 | > 100 | > 100 | – | – | – | – | – | – | – |
| CN(CCCCCl)P(=O)(OCc1ccc([N+](=O)[O-])o1)OC[C@H]1O[C@@H](n2cc(F)c(=O)[nH]c2=O)C[C@@H]1O (stereo partly specified) | > 80.1 | 0.0982 | – | > 100 | > 63.5 | 36.1 | 33.3 | 19.5 | 36.1 | 6.95 | 5.41 | 34.6 | > 56.1 | – | – | – | – | – | – | – |
| CCOC(=O)C1=C(C)OC2(O)C=CC(O)=C3C(=O)N(c4ccccc4)C(=O)C312 (stereo unspecified) | > 100 | – | > 100 | > 100 | 68.2 | 41.7 | – | 35.6 | 68.4 | 87.8 | > 100 | > 100 | > 100 | – | – | – | – | – | – | – |
| COc1cc2c(c(O)c1OC)-c1c(cc(OC)c(OC)c1OC)CC(C)C(C)C2 (stereo unspecified) | > 100 | > 100 | > 100 | > 100 | > 100 | > 100 | > 100 | > 100 | > 100 | > 100 | > 100 | > 100 | > 100 | – | – | – | – | – | – | – |
| Cn1c2ccccc2n2c(N=O)c(-c3ccccc3)nc12 | > 100 | > 100 | > 100 | > 100 | > 100 | > 100 | > 100 | > 100 | > 100 | 49.8 | > 100 | > 100 | > 100 | – | – | – | – | – | – | – |
| C=C1c2ccccc2C(=O)c2c1c1c(C(=O)OC)c(O)ccc1n2Cc1ccccc1 | 0.525 | 2.27 | 1.71 | 2.34 | 0.799 | 1.18 | 1.55 | 0.795 | 2.39 | 0.899 | – | 0.763 | 1.56 | – | – | – | – | – | – | – |
| COCCOC(=O)c1c(C)n([O-])c2cc(Cl)c(Cl)cc2[n+]1=O | 85.1 | 61.9 | 45.4 | 36.8 | 23.5 | 46.3 | > 100 | 54.6 | 72.7 | – | 61.2 | > 100 | > 100 | – | – | – | – | – | – | – |
| CN1CCc2[nH]c3ccccc3c2C1 | – | > 100 | > 100 | > 100 | > 100 | > 100 | – | > 100 | > 100 | > 100 | – | > 100 | – | – | – | – | – | – | – | – |
| COc1ccc2[nH]cc(CCNC(=O)[C@H](Cc3ccccc3)NC(=O)[C@@H](NCC(F)(F)F)C(C)C)c2c1 | 35.1 | – | – | 44 | 51.3 | 51.9 | 34 | 32.1 | 38.3 | – | – | 39 | 40.9 | – | – | – | – | – | – | – |
| Nc1ncnc2nc[nH]c12 | – | 11.1 | > 250 | > 250 | > 250 | > 232 | – | 220 | > 250 | > 155 | – | > 250 | – | – | 58.9 | – | 86 | – | – | – |
